From US20240252463A1, “METHODS OF TREATING FIBROTIC PATHOLOGIES” (Mayo Foundation for Medical Education and Research, priority 2018, published 2024) come the findings set out here.

Molecules are shown by their SMILES.

The test system of assay [1] is IPF patient derived fibroblasts. As to the kind of experiment: Traction Force Microscopy of IPF patient derived fibroblasts. It is filed as cell-based, human. As to conditions: IPF fibroblasts on 6.4 kPa matrices. How it is done:
Traction Force Microscopy: Traction analysis was conducted as previously described. Briefly, polyacrylamide substrates with shear moduli of 6.4 kPa were prepared, and fluorescent sulfate-modified latex microspheres (0.2 μm, 505/515 ex/em) (FluoSpheres, Life Technologies) were conjugated to the gel surfaces after treatment with 1 mg ml^−1 of dopamine hydrochloride (Sigma-Aldrich) in 50 mM HEPES solution (pH 8.5). IPF patient derived fibroblasts were plated on the gels overnight and treated as indicated before traction force measurements. Images of gel surface-conjugated fluorescent beads were acquired for each cell before and after trypsinization using a Nikon ECLIPSE Ti microscope at ×10 magnification. Traction forces were estimated by measuring bead displacement fields and computing corresponding traction fields using TractionsForAll (freely distributed program that calculates 2-D tractions exerted by an adherent cell on its substrate).

A further assay concerns cAMP. As to the kind of experiment: cAMP Assay (cAMP-Glo) in lung fibroblasts. It is filed as cell-based, human. As to conditions: IPF patient-derived fibroblasts, 20 minutes, DHX 10 μM. How it is done:
cAMP Assay: IPF patient derived fibroblasts were plated in EMEM containing 10% FBS overnight. […] 20 minutes prior to cell lysis media was removed and cells were treated with “induction buffer” containing nonselective phosphodiesterase inhibitors and the indicated concentration of compound(s). Luminescence was measured on a Flexstation 3 (Molecular Devices) plate reader.

A further assay concerns YAP/TAZ. As to the kind of experiment: YAP/TAZ localization in pulmonary epithelial (NHAEpC) and endothelial (NHMVEC) cells. It is filed as cell-based, human. As to conditions: FIG. 2b. The protocol: Scale bar represents 100 μm. […] Scale bar represents 100 μm.
ImmunofluorescenceMicroscopy: Cells were plated into 96 well plates (Corning 3603) in their specific growth media and allowed to attach (8 hours). Media was then exchanged for the indicated conditions for each experiment. Cells were fixed in 3.7% formalin (Sigma-Aldrich), permeabilized in 0.25% Triton X-100 (Sigma-Aldrich) and then blocked with 1% BSA for 1 h. Cells or tissue sections were incubated overnight with mouse monoclonal antibody against αSMA (Sigma-Aldrich F3777), and/or a rabbit monoclonal antibody against YAP/TAZ (Cell Signaling D24E4) diluted 1:200 in PBS with 1% BSA. Cells were then washed and exposed to flourescence-conjugated secondary antibodies (Invitrogen) diluted 1:1000 and DAPI (Thermo Fisher Scientific). Images were taken with a Cytation5 (BioTek) microscope. For scoring αSMA positive cells (FIG. 3b), an observer blinded to the treatment conditions counted αSMA-positive cells using a visual threshold for bright fibrous staining; a minimum of 200 cells was counted for each condition. YAP/TAZ localization was quantified (FIG. 2, 6, 8) using Gen5 (Biotek) software. […] Quantification of double positive (YAP/TAZ and αSMA) cells from lung tissue sections (FIG. 4d) was performed similarly; however separate thresholds were established for both YAP/TAZ and αSMA. A minimum of 4000 cells was quantified for each mouse.

In a further assay the test system is NIH-3T3 cells. The assay can be described thus: Matrix Remodeling Measured by Atomic Force Microscopy (NIH-3T3 cell-derived matrix). The format is cell-based, mouse. Particulars: TGFβ + ascorbic acid 72 hours, then 10 μM DHX additional 72 hours. How it is done: Matrix Remodeling Measured by Atomic Force Microscopy: NIH-3T3 cells were plated to confluence onto gelatin coated (Cell Biologics) AFM compatible tissue culture dishes (Willco) in DMEM containing 10% FBS. After cells attached overnight media was replaced with DMEM containing 2% FBS, 2 ng/mL TGFβ, and 20 μg/mL ascorbic acid to promote matrix deposition. After 72 hours, measurements were made using a BioScope Catalyst AFM (Bruker, MA, USA). Microindentations were performed using a 2.5 μm radius sphere-tipped probe (Novascan, IA, USA) with a spring constant determined at ˜100 pN nm^−1 by thermal fluctuation method. For each dish, 3 different areas were analyzed. Force curves were acquired with MIRO 2.0 (NanoScope 9.1; Bruker) at an indentation rate of […] and a ramp size of […] on different points. 75 force curves were performed per cell dish (25 per area). The Young's modulus E was determined by the fitting of force curve by Hertz model using NanoScope Analysis software (Bruker) and considering Poisson's ratio of 0.5. […]
The results above were consistent with DHX not only attenuating key aspects of fibroblast pro-fibrotic activation, but potentially shifting their phenotype toward one that promotes fibrosis clearance and resolution. […] After 72 hours the stiffness of the cells and their cell-derived matrix were measured using atomic force microscopy (AFM). […]

In the next assay the test system is αSMA+ stress fibers. The assay can be described thus: TGFβ-induced αSMA+ stress fiber formation. The format is cell-based, human. As to conditions: IMR-90, TGFβ 72 hours, DHX 10 μM from 48-72 hours. How it is done: ImmunofluorescenceMicroscopy: Cells were plated into 96 well plates (Corning 3603) in their specific growth media and allowed to attach (8 hours). Media was then exchanged for the indicated conditions for each experiment. Cells were fixed in 3.7% formalin (Sigma-Aldrich), permeabilized in 0.25% Triton X-100 (Sigma-Aldrich) and then blocked with 1% BSA for 1 h. Cells or tissue sections were incubated overnight with mouse monoclonal antibody against αSMA (Sigma-Aldrich F3777), and/or a rabbit monoclonal antibody against YAP/TAZ (Cell Signaling D24E4) diluted 1:200 in PBS with 1% BSA.

Consider `Oc1cc2c(cc1O)[C@H]1c3ccccc3CN[C@@H]1CC2` (racemic) [Dihydrexidine, dihydrexidine], for which the “contractile forces (traction force microscopy)” value in assay [1] was “significantly and dose-dependently reduced the contractile forces”. In addition, in the assay with cAMP, the cAMP entry is recorded as “elevated cAMP”. Also, the “YAP/TAZ localization in pulmonary epithelial and endothelial cells” value with YAP/TAZ was “had no effect on YAP/TAZ localization”. Further, in the assay on NIH-3T3 cells, the “stiffness of cells and cell-derived matrix (AFM)” value is “significantly reduced the observed stiffness”. In the assay on αSMA+ stress fibers, the “myofibroblastic transition (αSMA+ stress fibers)” value is recorded as “reversed this transition”.
